This is an account of results in patent publication US20230172849A1, “INHALED STATINS FOR TREATMENT OF VIRAL RESPIRATORY DISEASES” (priority 2020, published 2023).

The test system of assay [1] is SARS-CoV-2. Kind of assay: combination therapy, viral load by RT-PCR (ORF1ab gene) in Calu-3 cells. Format: cell-based. As to conditions: for decrease of viral load, agent alone: FIG. 31, mixed with SARS-CoV-2 (MOI 0.01) 1 hour at room temperature, RT-PCR (ORF1ab) 24 hours post infection, of the control. Set-up: key to enhanced decrease of viral load, combination vs two single agents: Each combination that showed an enhanced decrease of viral load as compared with the two single agents is denoted by “E”; Combinations that showed a slight trend towards an enhanced decrease of viral load as compared with the two single agents is denoted by “(e)”; —.

The target of assay [2] is SARS-CoV-2 Spike S1 (RBD) (Severe acute respiratory syndrome coronavirus 2, UniProt P0DTC2). Put plainly: biochemical. In kind it is binding.
Assay [3] relates to SARS-CoV-2. Format: cell-based.
Assay [4] concerns human bronchial epithelial cells (HBE1). Put plainly: depletion of total cellular cholesterol in HBE1 cells. Format: cell-based. The note with it: HBE1, 48 hours; 50-400 nM and 1-20 μM; concentrations marked (*) in FIGS. 1, 2; p<0.05. The procedure:
Total cellular cholesterol was measured by spectrophotometry, and plotted as the ratio of absorbance to total protein in μg. […] Significant reductions in cholesterol content (≥50%, p<0.05) are indicated (*).

Setting [5] is: Table 2, read-out: Affinity (nM) of binding to SARS-COV2 Spike protein.

“Also recorded” adds a separate entry of the source. Counter-ions that a name gives are not always drawn. Like-named read-outs stand apart in the source and are kept apart here.

Consider `CC(C)c1c(C(=O)Nc2ccccc2)c(-c2ccccc2)c(-c2ccc(F)cc2)n1CC[C@@H](O)C[C@@H](O)CC(=O)O` [INS104, Atorvastatin], for which the “decrease of viral load, agent alone” value in assay [1] is given as 22%. Further, the “decrease in viral load, combination with remdesivir or dexamethasone vs monotherapies” value in assay [1] (FIGS. 30, 31, statin and SARS-CoV-2 (MOI 0.01) mixed 1 hour at room temperature, 24 hours post infection) was “synergistic”. In addition, the “enhanced decrease of viral load, combination vs two single agents” value (“enhanced decrease of viral load” below) in assay [1] (statin 0.2 μM + Dex 0.1 μM) is listed as “—”; in assay [1] (statin 0.2 μM + Dex 1 μM), “(e)”; in assay [1] (statin 0.2 μM + Dex 10 μM), “—”; in assay [1] (statin 0.2 μM + Remde 1), “—”; in assay [1] (statin 0.2 μM + Remde 10) it was “—”; in assay [1] (statin 0.2 μM + Remde 100), “(e)”. The “enhanced decrease of viral load” value in assay [1] (statin 1 μM + Dex 0.1 μM) is listed as “—”; in assay [1] (statin 1 μM + Dex 1 μM) it was “E”; in assay [1] (statin 1 μM + Dex 10 μM), “(e)”; in assay [1] (statin 1 μM + Remde 1) it was “—”; in assay [1] (statin 1 μM + Remde 10), “(e)”; in assay [1] (statin 1 μM + Remde 100) it was “—”. The “enhanced decrease of viral load” value in assay [1] (statin 5 μM + Dex 0.1 μM) was “—”; in assay [1] (statin 5 μM + Dex 1 μM) it was “synergistic enhancement and E”; in assay [1] (statin 5 μM + Dex 10 μM), “enhancement was maintained at a lower level and E”; in assay [1] (statin 5 μM + Remde 1), “—”; in assay [1] (statin 5 μM + Remde 10) it was “enhancement in the decrease of viral load and E”; in assay [1] (statin 5 μM + Remde 100), “—”. The Kd in assay [2] and in assay [2] (read-out: Affinity (nM) of binding to SARS-COV2 Spike protein) was 234 to 456 nM throughout. Besides, the Remarks entry in assay [2] was “Strong Binding”. The S/N in assay [2] is listed as 8.5-8.7. Besides, in assay [2], the “binding to SARS-COV-2 S-protein (in words)” value (from here on “binding”) is “bind with SARS-COV-2 S-protein at nanomolar (nM) concentrations”.

Regarding `CC[C@H](C)C(=O)O[C@H]1C[C@@H](C)C=C2C=C[C@H](C)[C@H](CC[C@@H]3C[C@@H](O)CC(=O)O3)[C@H]21` [INS105, Lovastatin], in assay [2] (setting [5]), the Kd lay within 529 to 929 nM.

Take `CCC(C)(C)C(=O)O[C@H]1C[C@@H](C)C=C2C=C[C@H](C)[C@H](CC[C@@H]3C[C@@H](O)CC(=O)O3)[C@H]21` [INS102, Simvastatin]: the “enhanced decrease of viral load” value is “—” in assay [1] (statin 0.1 μM + Dex 0.1 μM); “E” in assay [1] (statin 0.1 μM + Dex 1 μM); “E” in assay [1] (statin 0.1 μM + Dex 10 μM); “—” in assay [1] (statin 0.1 μM + Remde 1); “—” in assay [1] (statin 0.1 μM + Remde 10); “—” in assay [1] (statin 0.1 μM + Remde 100). The “enhanced decrease of viral load” value is on record as “E” in assay [1] (statin 1 μM + Dex 0.1 μM); “E” in assay [1] (statin 1 μM + Dex 1 μM); “—” in assay [1] (statin 1 μM + Dex 10 μM); “—” in assay [1] (statin 1 μM + Remde 1); “—” in assay [1] (statin 1 μM + Remde 10); “E” in assay [1] (statin 1 μM + Remde 100). Further, the “enhanced decrease of viral load” value in assay [1] (statin 10 μM + Dex 0.1 μM) is “—”; in assay [1] (statin 10 μM + Dex 1 μM), “—”; in assay [1] (statin 10 μM + Dex 10 μM) it was “—”; in assay [1] (statin 10 μM + Remde 1), “—”; in assay [1] (statin 10 μM + Remde 10) it was “—”; in assay [1] (statin 10 μM + Remde 100), “E”. For the same compound, the “Average (percent cell viability)” value in assay [3] (Case A: compound added 1 h after infection, 72 h contact, 0.1 uM) is 5.506%; in assay [3] (Case A: compound added 1 h after infection, 72 h contact, 1 uM), 7.304%; in assay [3] (Case A: compound added 1 h after infection, 72 h contact, 10 uM), 17.48%; in assay [3] (Case B: compound added 24 h after infection, 48 h contact, 0.1 uM), 6.427%; in assay [3] (Case B: compound added 24 h after infection, 48 h contact, 1 uM), 9.597%; in assay [3] (Case B: compound added 24 h after infection, 48 h contact, 10 uM), 11.85%. Further, the “Average (percent cell viability)” value in assay [3] (Case C: compound added 48 h after infection, 24 h contact, 0.1 uM) is recorded as 3.967%; in assay [3] (Case C: compound added 48 h after infection, 24 h contact, 1 uM) it was 2.16%; in assay [3] (Case C: compound added 48 h after infection, 24 h contact, 10 uM), 6.117%; in assay [3] (Case D: pre-treated 6 h, then infected 72 h, 0.1 uM) it was 35.26%; in assay [3] (Case D: pre-treated 6 h, then infected 72 h, 1 uM), 31.9%; in assay [3] (Case D: pre-treated 6 h, then infected 72 h, 10 uM), 33.31%. Further, the “Average (percent cell viability)” value is −0.98% in assay [3] (Case E: pre-treated 24 h, then infected 72 h, 0.1 uM); 29.28% in assay [3] (Case E: pre-treated 24 h, then infected 72 h, 1.0 uM); 46.90% in assay [3] (Case E: pre-treated 24 h, then infected 72 h, 10.0 uM); 10.1% in assay [3] (Case F: compound 1 h before infection (coinc 1 h), then virus 72 h, 0.1 uM); 8.721% in assay [3] (Case F: compound 1 h before infection (coinc 1 h), then virus 72 h, 1 uM); 19.4% in assay [3] (Case F: compound 1 h before infection (coinc 1 h), then virus 72 h, 10 uM). Besides, the “reduction in cholesterol content” value in assay [4] was at least 50%.

As to Hydroxy Simvastatin [INS102-S], the “binding” value in assay [2] (MST binding assay) is recorded as “weak binding”.

Turning to `CC[C@H](C)C(=O)O[C@H]1C[C@H](O)C=C2C=C[C@H](C)[C@H](CC[C@@H](O)C[C@@H](O)CC(=O)O)[C@H]21` [INS101, Pravastatin Sodium], the “binding” value in assay [2] (MST binding assay) is on record as “weak binding; also recorded: none or very low affinity”. The Remarks entry in assay [2] (Table 1, binding to SARS-CoV-2 S1) is “No interaction/weak binder”.

On to `CCC(C)(C)C(=O)O[C@H]1C[C@@H](C)C=C2C=C[C@H](C)[C@H](CC[C@@H](O)C[C@@H](O)CC(=O)O)[C@H]21` [INS106, Simvastatin Hydroxy Acid, Ammonium Salt], for which, in assay [2] (setting [5]), the Kd fell in the range of 1570 to 2600 nM.

For the compound `C[C@@H]1C[C@H]2[C@@H]3CCC4=CC(=O)C=C[C@]4(C)[C@@]3(F)[C@@H](O)C[C@]2(C)[C@@]1(O)C(=O)CO` [Dexamethasone, dexamethasone], the “decrease of viral load, agent alone” value in assay [1] is 46%.

Consider `C[C@H](N[C@@H](CCc1ccccc1)C(=O)O)C(=O)N1CCC[C@H]1C(=O)O` [INS107], for which the “binding” value in assay [2] (MST binding assay) is “no binding is indicated”.
